According to patent US20240317744A1, “Bicyclic Ureas As Kinase Inhibitors” (Incyte Corporation, priority 2023, published 2024):

Experiments:
[1] = molecular target: T1, pseudo-kinase domain (JH2, amino-acids 536-812) of human V617F mutant JAK2 (Homo sapiens, UniProt O60674, F794H/V617F/W659A/W777A); experiment: JAK2 LanthaScreen JH2-V617F Binding Assay; details: JAK2 JH2-V617F 0.26 nM, 50 nM tracer, 1 hour at 25° C.; read-out: JH2 BIND V617F
T1 construct: pseudo-kinase domain (JH2, amino-acids 536-812 with 3 surface mutations W659A, W777A, F794H); His (C); purchased BPS Bioscience 79498; host or cells: baculovirus expression system
Description: Example C. JAK2 LanthaScreen JH2-V617F Binding Assay
JAK2 JH2-V617F binding assay utilizes pseudo-kinase domain (JH2, amino-acids 536-812 with 3 surface mutations W659A, W777A, F794H) of human V617F mutant JAK2 expressed as C-terminal His-Avi-tagged, biotinylated protein in a baculovirus expression system (BPS Bioscience, Catalog #79498). The assay was conducted in black 384-well polystyrene plates in a final reaction volume of 20 μL. JAK2 JH2-V617F (0.26 nM) was incubated with compounds (100 nL serially diluted in DMSO) in the presence of 50 nM Fluorescent JAK2-JH2 Tracer (MedChem Express Catalog #HY-102055) and 0.25 nM Streptavidin-Tb cryptate (Cisbio Part #610SATLB) in assay buffer (50 mM Tris, pH=7.5, 10 mM MgCl2, 0.01% Brij-35, 0.1% BSA, 1 mM EGTA, 5% Glycerol and 5 mM DTT). Non-specific binding was accessed in the presence of 2 mM ATP. After incubation for 1 hour at 25° C., LanthaScreen signals were read on a PHERAstar FS plate reader (BMG LABTECH). Data was analyzed with IDBS XLfit and GraphPad Prism 5.0 software using a four parameter dose response curve to determine IC50 for each compound.

[2] = molecular target: catalytic domain (JH1, amino acids 808-1132) of human JAK2 (Homo sapiens, UniProt O60674); experiment: JAK2 HTRF Enzyme Activity Assay; type: biochemical; details: ATP 30 µM, 60 minutes at 25° C.; read-out: V617F ENZ 30 UM
Sequence of catalytic domain (JH1, amino acids 808-1132) of human JAK2 (O60674 808-1132 limits assumed): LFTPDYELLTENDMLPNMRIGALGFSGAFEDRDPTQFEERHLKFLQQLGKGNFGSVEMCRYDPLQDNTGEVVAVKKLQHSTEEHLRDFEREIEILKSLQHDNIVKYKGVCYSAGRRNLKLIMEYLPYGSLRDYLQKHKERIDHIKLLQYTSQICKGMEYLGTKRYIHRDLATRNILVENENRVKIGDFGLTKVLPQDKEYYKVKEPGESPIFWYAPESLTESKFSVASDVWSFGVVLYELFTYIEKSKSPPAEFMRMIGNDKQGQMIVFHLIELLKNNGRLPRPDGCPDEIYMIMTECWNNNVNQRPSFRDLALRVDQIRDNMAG

T1 sequence (O60674 536-812 V617F/W659A/W777A/F794H): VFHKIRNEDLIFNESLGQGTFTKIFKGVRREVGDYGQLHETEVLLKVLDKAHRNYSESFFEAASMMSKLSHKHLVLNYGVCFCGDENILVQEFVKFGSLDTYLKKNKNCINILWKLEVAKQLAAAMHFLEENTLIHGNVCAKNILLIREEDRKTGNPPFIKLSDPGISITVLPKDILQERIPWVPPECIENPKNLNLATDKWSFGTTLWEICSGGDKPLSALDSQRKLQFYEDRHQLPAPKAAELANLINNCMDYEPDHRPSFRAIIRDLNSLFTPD

Row | Compound | IC50 [1] | IC50 [2]
1 | [2H]C([2H])([2H])n1c(=O)n([C@@H]2CC[C@@]([2H])(NC(=O)OC)C2)c2cc(Nc3cc(C4CCN(C)CC4)cc(-c4ncc(C(C)(C)O)s4)n3)ncc21 [Example 166, Methyl ((1R,3R)-3-(6-((6-(5-(2-hydroxypropan-2-yl)thiazol-2-yl)-4-(1-methylpiperidin-4-yl)pyridin-2-yl)amino)-3-(methyl-d3)-2-oxo-2,3-dihydro-1H-imidazo[4,5-c]pyridin-1-yl)cyclopentyl-1-d)carbamate] | ≤ 10 nM | > 1000 nM
2 | [2H]C1(NC(=O)OC)CC[C@@H](n2c(=O)n(C([2H])([2H])[2H])c3cnc(Nc4ccc5c(n4)c(-c4cnn(C(F)(F)F)c4)cn5C4([2H])CCOCC4)cc32)C1 (stereo partly drawn) [Example 112, Methyl ((3R)-3-(3-(methyl-d3)-2-oxo-6-((1-(tetrahydro-2H-pyran-4-yl-4-d)-3-(1-(trifluoromethyl)-1H-pyrazol-4-yl)-1H-pyrrolo[3,2-b]pyridin-5-yl)amino)-2,3-dihydro-1H-imidazo[4,5-c]pyridin-1-yl)cyclopentyl-1-d)carbamate] | ≤ 10 nM | > 1000 nM
3 | [2H]C([2H])([2H])n1c(=O)n([C@@H]2CC[C@]([2H])(NC(=O)OC)C2)c2cc(Nc3cc(-c4cnccc4C(F)(F)F)cc(-c4ncc(C(C)(C)O)s4)n3)ncc21 [Example 165, Methyl ((1S,3R)-3-(6-((6′-(5-(2-hydroxypropan-2-yl)thiazol-2-yl)-4-(trifluoromethyl)-[3,4′-bipyridin]-2′-yl)amino)-3-(methyl-d3)-2-oxo-2,3-dihydro-1H-imidazo[4,5-c]pyridin-1-yl)cyclopentyl-1-d)carbamate] | ≤ 10 nM | > 1000 nM
4 | [2H]C([2H])([2H])n1c(=O)n([C@@H]2CC[C@@H](NC(=O)OC)C2)c2cc(Nc3ccc4c(n3)c(-c3cnn(C(F)(F)F)c3)cn4CC(C)(C)O)ncc21 [Example 110, Methyl ((1R,3R)-3-(6-((1-(2-hydroxy-2-methylpropyl)-3-(1-(trifluoromethyl)-1H-pyrazol-4-yl)-1H-pyrrolo[3,2-b]pyridin-5-yl)amino)-3-(methyl-d3)-2-oxo-2,3-dihydro-1H-imidazo[4,5-c]pyridin-1-yl)cyclopentyl)carbamate] | ≤ 10 nM | > 1000 nM
5 | [2H]C([2H])([2H])n1c(=O)n(C23CCC(C(N)=O)(CC2)C3)c2cc(Nc3cc(C(C)(C)O)cc(-c4ncc(C(F)(F)F)s4)n3)ncc21 [Example 141, 4-(6-((4-(2-Hydroxypropan-2-yl)-6-(5-(trifluoromethyl)thiazol-2-yl)pyridin-2-yl)amino)-3-(methyl-d3)-2-oxo-2,3-dihydro-1H-imidazo[4,5-c]pyridin-1-yl)bicyclo[2.2.1]heptane-1-carboxamide] | ≤ 10 nM | > 1000 nM
6 | [2H]C([2H])([2H])n1c(=O)n([C@@H]2CC[C@@]([2H])(NC(=O)OC)C2)c2cc(Nc3cc(C(C)(C)O)cc(-c4ncc(C(O)(C(F)(F)F)C(F)(F)F)s4)n3)ncc21 [Example 147, Methyl ((1R,3R)-3-(6-((6-(5-(1,1,1,3,3,3-hexafluoro-2-hydroxypropan-2-yl)thiazol-2-yl)-4-(2-hydroxypropan-2-yl)pyridin-2-yl)amino)-3-(methyl-d3)-2-oxo-2,3-dihydro-1H-imidazo[4,5-c]pyridin-1-yl)cyclopentyl-1-d)carbamate] | ≤ 10 nM | > 1000 nM
7 | [2H]C([2H])([2H])n1c(=O)n([C@@H]2CC[C@](C)(NC(C)=O)C2)c2cc(Nc3ccc4c(n3)c(-c3cnn(C(F)(F)F)c3)nn4CC(C)(C)O)ncc21 [Example 129, N-((1S,3R)-3-(6-((1-(2-Hydroxy-2-methylpropyl)-3-(1-(trifluoromethyl)-1H-pyrazol-4-yl)-1H-pyrazolo[4,3-b]pyridin-5-yl)amino)-3-(methyl-d3)-2-oxo-2,3-dihydro-1H-imidazo[4,5-c]pyridin-1-yl)-1-methylcyclopentyl)acetamide] | ≤ 10 nM | > 1000 nM
